The record followed here is patent US20260317304A1, “TEAD INHIBITORS AND METHODS OF USE” (Sporos BioDiscovery, Inc., priority 2022, published 2026).

What all share (type): cell-based
The subject of experiment [1] is Mero14 cells. The experiment can be described thus: Mero14 proliferation and cell viability assay (CTG). Conditions: 144 hours. The procedure: Mero14 cells were trypsinised, counted and plated at 400 cells/well in 200 μl of growth media in 96 well flat bottom tissue culture treated plates. The plated cells were incubated overnight at 37° C., 5% CO2 before being treated with compounds in triplicate for each assay point. 50 μl of the serially diluted compound was added to each well giving a final DMSO concentration of 0.5% per well and a total volume of 250 μl per well. The treated cells were incubated for 144 hours (6 days) at 37° C., 5% CO2. Following compound treatment the remaining viable cells were detected using the Promega CellTiter-Glo 2.0 assay as follows: 150 μl of media was removed from each of the wells to be assayed and 100 μl of room temperature CellTiter-Glo 2.0 reagent was added. The plate was placed on an orbital shaker at 500 rpm at room temperature for 2 minutes, and then incubated without shaking for a further 10 minutes at room temperature. 150 μl of cell lysate was removed from each well and dispensed into a single well of a white opaque 96 well plate. Luminescence at 545 nm was read using a BMG CLARIOstar plate reader. The luminescent signal was directly proportional to number of viable cells, the percent of viable cells relative to the DMSO control was then calculated for each assay point. Percent viability relative to DMSO control is plotted against compound concentration and a curve fitted with non-linear regression in GraphPad Prism software. EC50 and absolute IC50 values were calculated using GraphPad Prism software as follows: For EC50 values, a non-constrained four-parameter logistic curve fit was used (Sigmoidal, 4PL, X is concentration). For Absolute IC50 values the baseline was constrained to Y=0 and top at 100 (Absolute IC50, X is concentration). Area Under the Curve (AUC): Prism computed area-under-the-curve by the trapezoidal method. The analysis sees a fitted curve as simply a series of connected XY points. Prism simply computes the area under the “curve” defined by connecting the points by straight lines. The units of the AUC are the units of the Y axis times units of the X axis.
(§1) For EC50 data, the symbol “A” indicates a value of less than 0.2 μM; the symbol “B” indicates a value in the range of from 0.2 μM up to 1 μM; and the symbol “C” indicates a value of greater than 1 μM.

Experiment [2] has as its system Mero82 cells. The experiment can be described thus: Mero82 proliferation and cell viability assay (CTG). Conditions: 144 hours. The procedure: Mero 82 cells were trypsinised, counted and plated at 400 cells/well in 200 μl of growth media in 96 well flat bottom tissue culture treated plates. The plated cells were incubated overnight at 37° C., 5% CO2 before being treated with compounds in triplicate for each assay point. 50 μl of the serially diluted compound was added to each well giving a final DMSO concentration of 0.5% per well and a total volume of 250 μl per well. The treated cells were incubated for 144 hours (6 days) at 37° C., 5% CO2. Following compound treatment, the remaining viable cells were detected using the Promega CellTiter-Glo 2.0 assay as follows: 150 μl of media was removed from each of the wells to be assayed and 100 μl of room temperature CellTiter-Glo 2.0 reagent was added. The plate was placed on an orbital shaker at 500 rpm at room temperature for 2 minutes, and then incubated without shaking for a further 10 minutes at room temperature. 150 μl of cell lysate was removed from each well and dispensed into a single well of a white opaque 96 well plate. Luminescence at 545 nm was read using a BMG CLARIOstar plate reader. The luminescent signal was directly proportional to number of viable cells, the percent of viable cells relative to the DMSO control was then calculated for each assay point. Percent viability relative to DMSO control was plotted against compound concentration and a curve fitted with non-linear regression in GraphPad Prism software. EC50 and absolute IC50 values were calculated using GraphPad Prism software as follows: For EC50 values, a non-constrained four-parameter logistic curve fit was used (Sigmoidal, 4PL, X is concentration). For Absolute IC50 values the baseline was constrained to Y=0 and top at 100 (Absolute IC50, X is concentration). Area Under the Curve (AUC): Prism computes area-under-the-curve by the trapezoidal method. The analysis sees a fitted curve as simply a series of connected XY points. Prism simply computes the area under the “curve” defined by connecting the points by straight lines. The units of the AUC are the units of the Y axis times units of the X axis.
as §1

Experiment [3] has as its system MSTO-211H cells. Put plainly: MSTO-211H proliferation and cell viability assay (CTG). Conditions: Homo sapiens, 144 hours. The procedure: MSTO-211H cells were trypsinised, counted and plated at 1500 cells/well in 200 μl of growth media in 96 well flat bottom tissue culture treated plates. The plated cells were incubated overnight at 37° C., 5% CO2 before being treated with compounds in triplicate for each assay point. 50 μl of the serially diluted compound was added to each well giving a final DMSO concentration of 0.5% per well and a total volume of 250 μl per well. The treated cells were incubated for 144 hours (6 days) at 37° C., 5% CO2. Following compound treatment, the remaining viable cells were detected using the Promega CellTiter-Glo 2.0 assay as follows: 150 μl of media was removed from each of the wells to be assayed and 100 μl of room temperature CellTiter-Glo 2.0 reagent was added. The plate was placed on an orbital shaker at 500 rpm at room temperature for 2 minutes, and then incubated without shaking for a further 10 minutes at room temperature. 150 μl of cell lysate was removed from each well and dispensed into a single well of a white opaque 96 well plate. Luminescence at 545 nm was read using a BMG CLARIOstar plate reader. The luminescent signal was directly proportional to number of viable cells, the percent of viable cells relative to the DMSO control was then calculated for each assay point. Percent viability relative to DMSO control was plotted against compound concentration and a curve fitted with non-linear regression in GraphPad Prism software. EC50 and absolute IC50 values were calculated using GraphPad Prism software as follows: For EC50 values a non-constrained four-parameter logistic curve fit was used (Sigmoidal, 4PL, X is concentration). For Absolute IC50 values the baseline was constrained to Y=0 and top at 100 (Absolute IC50, X is concentration). Area Under the Curve (AUC): Prism computes area-under-the-curve by the trapezoidal method. The analysis sees a fitted curve as simply a series of connected XY points. Prism simply computes the area under the “curve” defined by connecting the points by straight lines. The units of the AUC are the units of the Y axis times units of the X axis.
as §1

pEC50: −log10 of the molar value.

With `Cn1nnc(-c2cc([C@]3(C)CCNC3=O)ccc2Nc2ccc(C(F)(F)F)cc2)n1` (stereo in doubt) [Compound 20, 3-methyl-3-(3-(2-methyl-2H-tetrazol-5-yl)-4-((4-(trifluoromethyl)phenyl)amino)phenyl) pyrrolidin-2-one], the pEC50 in experiment [1], in experiment [2] and in experiment [3] was more than 6.70 throughout.

As for `C=CC(=O)Nc1ccc(C)c(Oc2ccc(Cl)cc2)c1` [Compound 1-3, reference compound], the pEC50 in experiment [1], in experiment [2] and in experiment [3] was more than 6.70 throughout.

For `Cn1cnc(-c2cc([C@@]3(C)CCNC3=O)ccc2Nc2ccc(C(F)(F)F)cc2)c1` (single isomer, unassigned) [Compound 5, 3-methyl-3-(3-(1-methyl-1H-imidazol-4-yl)-4-((4-(trifluoromethyl)phenyl)amino)phenyl)pyrrolidin-2-one], the pEC50 in experiment [1], in experiment [2] and in experiment [3] was more than 6.70 in each case.

On to `Cn1cnc(-c2cc(C3(C)NC(=O)NC3=O)ccc2Nc2ccc(C(F)(F)F)cc2)c1` (single isomer, unassigned) [Compound 15, 5-methyl-5-(3-(1-methyl-1H-imidazol-4-yl)-4-((4-(trifluoromethyl)phenyl)amino)phenyl)imidazolidine-2,4-dione], for which the pEC50 in experiment [1], in experiment [2] and in experiment [3] was more than 6.70 throughout.

`FC(F)(F)c1ccc(CN2CCC(C3CC(Br)=NO3)CC2)cc1` (stereo not drawn) [Compound 1-2, reference compound]: the pEC50 was 6.00 to 6.70 in experiment [1], less than 6.00 in experiment [2] and more than 6.70 in experiment [3].
